Experimental findings from US11168088B2 (SHANGHAI HAIYAN PHARMACEUTICAL TECHNOLOGY CO., LTD., priority 2016, dated 2021) are described below.

What all share (format): biochemical
In assay [1] the target is CDK1 (Homo sapiens (Human), UniProt P06493). Description: In vitro kinase test (LANCE Ultra), CDK1. The source says:
(§1) Recombinant CDK1/CCNB1 and CDK9/CCNT were purchased from BPS; CDK2/CCNA1, CDK4/CCND1 and CDK6/CCND1 were purchased from Invitrogen; CDK4/CycD3 and CDK6/CycD3 were purchased from Carna. Adenosine triphosphate (ATP) was purchased from Life tech. Substrate Ulight-4EBP1 and the corresponding detection antibody were purchased from Perkinelmer. The detection system was Perkinelmer's LANCE Ultra system.
(§2) In the kinase test, a compound to be tested was 1:3 diluted for 8 gradient points, added into a reaction plate, and then added an appropriate amount of recoinbinase. A buffer [50 mM HEPES […], 10 mM MgCl2, 3 mM MnCl2, 1 mM EGTA, 0.01% Tween-20, 1 mM TCEP] containing ATP/Ulight-4EBP1 premix with predetermined concentration was subsequently added, and the kinase reaction was started at room temperature. A test solution pre-mixed with 10 mM EDTA and detection antibody was added after a suitable reaction time, and then the fluorescence value was read on Tecan infinite pro after reacting for 1 hour at room temperature. The IC50 was calculated using a four-factor model fitting in a XLfit software.
A general note: TR-FRET usually uses a lanthanide donor and a delayed reading to cut background.

The target of assay [2] is CDK4 (Homo sapiens (Human), UniProt P11802). Description: In vitro kinase test (LANCE Ultra), CDK4.
Source text: as §1, §2

Assay [3] concerns the target CDK2 (Homo sapiens (Human), UniProt P24941). The assay can be described thus: In vitro kinase test (LANCE Ultra), CDK2.
Source text: as §1, §2

Assay [4] deals with CDK6 (Homo sapiens (Human), UniProt Q00534). Description: In vitro kinase test (LANCE Ultra), CDK6.
Source text: as §1, §2

CDK4, sequence (P11802 whole entry, looked up): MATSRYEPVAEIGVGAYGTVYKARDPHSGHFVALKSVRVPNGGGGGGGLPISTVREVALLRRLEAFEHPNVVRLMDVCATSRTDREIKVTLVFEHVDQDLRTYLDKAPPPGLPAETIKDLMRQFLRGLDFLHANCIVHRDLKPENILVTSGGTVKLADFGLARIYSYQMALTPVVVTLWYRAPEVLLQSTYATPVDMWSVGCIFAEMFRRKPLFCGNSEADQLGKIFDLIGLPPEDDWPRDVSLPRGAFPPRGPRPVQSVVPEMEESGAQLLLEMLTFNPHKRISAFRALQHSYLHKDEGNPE
CDK4, sequence (P24385 whole entry partner, looked up): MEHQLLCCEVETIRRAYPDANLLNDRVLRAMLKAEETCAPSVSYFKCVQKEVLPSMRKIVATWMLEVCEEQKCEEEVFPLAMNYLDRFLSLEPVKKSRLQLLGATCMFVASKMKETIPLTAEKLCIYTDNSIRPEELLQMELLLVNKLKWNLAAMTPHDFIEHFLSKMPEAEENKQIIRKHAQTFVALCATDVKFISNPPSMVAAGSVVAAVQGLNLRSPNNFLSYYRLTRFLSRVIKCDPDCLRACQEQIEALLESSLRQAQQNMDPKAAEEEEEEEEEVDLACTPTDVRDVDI
CDK6, sequence (Q00534 whole entry, looked up): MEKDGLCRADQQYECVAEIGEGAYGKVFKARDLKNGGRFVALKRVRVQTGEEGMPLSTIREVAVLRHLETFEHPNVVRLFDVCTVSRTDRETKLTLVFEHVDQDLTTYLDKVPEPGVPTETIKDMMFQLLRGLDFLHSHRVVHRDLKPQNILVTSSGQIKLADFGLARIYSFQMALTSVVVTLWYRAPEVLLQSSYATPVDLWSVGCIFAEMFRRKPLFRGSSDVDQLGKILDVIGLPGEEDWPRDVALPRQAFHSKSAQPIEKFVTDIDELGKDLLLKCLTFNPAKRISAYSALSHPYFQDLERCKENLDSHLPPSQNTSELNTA
CDK6, sequence (P24385 whole entry partner, looked up): as the sequence (P24385 whole entry partner, looked up) above
CDK1, sequence (P06493 whole entry): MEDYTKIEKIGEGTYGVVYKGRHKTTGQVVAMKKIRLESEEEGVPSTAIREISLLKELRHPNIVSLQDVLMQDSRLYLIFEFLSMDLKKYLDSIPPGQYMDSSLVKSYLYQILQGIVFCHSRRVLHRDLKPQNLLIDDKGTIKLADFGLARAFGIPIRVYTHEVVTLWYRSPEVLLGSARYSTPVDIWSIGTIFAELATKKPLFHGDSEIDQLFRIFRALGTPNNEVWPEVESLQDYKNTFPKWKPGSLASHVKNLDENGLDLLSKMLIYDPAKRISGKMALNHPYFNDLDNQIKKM
CDK1, sequence (P14635 whole entry partner): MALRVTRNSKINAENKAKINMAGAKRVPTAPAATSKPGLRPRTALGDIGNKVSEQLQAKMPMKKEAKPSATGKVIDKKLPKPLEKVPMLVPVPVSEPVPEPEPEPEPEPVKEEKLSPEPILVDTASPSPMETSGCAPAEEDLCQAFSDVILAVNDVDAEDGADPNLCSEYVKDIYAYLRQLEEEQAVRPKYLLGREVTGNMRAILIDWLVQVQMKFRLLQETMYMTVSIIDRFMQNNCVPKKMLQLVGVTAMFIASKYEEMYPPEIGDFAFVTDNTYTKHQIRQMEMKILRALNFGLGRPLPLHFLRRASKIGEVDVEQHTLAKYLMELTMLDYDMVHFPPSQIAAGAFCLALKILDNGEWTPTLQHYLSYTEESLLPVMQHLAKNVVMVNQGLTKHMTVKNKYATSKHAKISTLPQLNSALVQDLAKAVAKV

On to `Cc1c2c(nn1C)CCc1cnc(Nc3ccc(N4CCN(C)CC4)cc3)nc1-2` [Compound D1, reference compound], for which the “inhibitory activity against CDK1 (in words)” value in assay [1] is “strong inhibitory activity”. For the same compound, the “inhibitory activity against CDK4 (in words)” value in assay [2] is on record as “strong inhibitory activity”. In addition, in assay [3], the “inhibitory activity against CDK2 (in words)” value is “strong inhibitory activity”. The “inhibitory activity against CDK6 (in words)” value in assay [4] is “strong inhibitory activity”.
With `CCN1CCN(Cc2ccc(Nc3ncc4c(n3)-c3c(nn(CC)c3C(C)C)CC4)nc2)CC1` [Compound P-2], the IC50 (usually the concentration that gives 50% inhibition) in assay [1] was 427 nM; in assay [2], 4 nM; in assay [4], 38 nM.
Regarding `CCc1nc2c(n1C(C)C)-c1nc(Nc3ccc(CN4CCN(CC)CC4)cn3)ncc1CC2` [Compound P-3], the concentration for half-maximal inhibition (IC50) in assay [1] turned out to be 912 nM; in assay [2], 6 nM; in assay [3] it was 1150 nM; in assay [4], 59 nM.
On to `CCn1nc2c(c1C(C)C)-c1nc(Nc3ccc(N4CCNCC4)cn3)ncc1CC2` [Compound P-4, 8-ethyl-9-isopropyl-N-(5-(piperazin-1-yl)pyridin-2-yl)-6,8-dihydro-5H-pyrazolo[3,4-H]quinazolin-2-amine], for which the IC50 in assay [1] stood at 7960 nM; in assay [2], 5 nM; in assay [3] it was 4760 nM; in assay [4] it was 33 nM.
As to `CCc1nc2c(n1C(C)C)-c1nc(Nc3ccc(CN4CCN(CC)CC4)cn3)ncc1C2` [Compound P-5], the IC50 in assay [1] turned out to be 5310 nM; in assay [2], 22 nM; in assay [4], 256 nM.
For the compound `CCN1CCN(c2ccc(Nc3ncc4c(n3)-c3c(nn(C)c3C(C)C)C4)nc2)CC1` [Compound P-7], the half-maximal inhibitory concentration (IC50) in assay [1] turned out to be 8530 nM; in assay [2], 6 nM; in assay [3], 9850 nM; in assay [4], 42 nM.
On to `CC(C)c1c2c(nn1C)Cc1cnc(Nc3ccc(N4CCNCC4)cn3)nc1-2` [Compound P-8], for which the 50% inhibitory concentration (IC50) in assay [1] was more than 10000 nM; in assay [2], 10 nM; in assay [3], 8250 nM; in assay [4], 161 nM.
`c1cc(Nc2ncc3c(n2)-c2c(cnn2C2CCCC2)CC3)ncc1N1CCNCC1` [Compound P-9, 1-cyclopentyl-N-(5-(piperazin-1-yl)pyridin-2-yl)-4,5-dihydro-1H-pyrazolo[4,3H]quinazolin-8-amine]: the IC50 in assay [1] came to 5170 nM; in assay [2], 8 nM; in assay [3], 1440 nM; in assay [4], 40 nM.
Turning to `CCN1CCN(c2ccc(Nc3ncc4c(n3)-c3c(cnn3C(C)C)CC4)nc2)CC1` [Compound P-12], the IC50 in assay [1] is more than 10000 nM; in assay [2] it was 8 nM; in assay [4], 36 nM.
Regarding `Cc1nc2c(n1C1CCCC1)-c1nc(Nc3ccc(N4CCNCC4)cn3)ncc1C2` [Compound P-13], the IC50 in assay [1] worked out at 5650 nM; in assay [2], 23 nM; in assay [3], 8320 nM; in assay [4], 43 nM.
On the same counts, the results for `CC(C)c1c2c(nn1C)CCc1cnc(Nc3ccc(N4CCNCC4)cn3)nc1-2` [Compound P-14, 9-isopropyl-8-methyl-N-(5-(piperazin-1-yl)pyridin-2-yl)-6,8-dihydro-5H-pyrazolo[3,4-H]quinazolin-2-amine] are 1020 nM, 5 nM, 523 nM and 20 nM.
For `CCc1nc2c(n1CC)-c1nc(Nc3ccc(N4CCNCC4)cn3)ncc1C2` [Compound P-21], the IC50 stood at 6370 nM in assay [1], 35 nM in assay [2], 5050 nM in assay [3] and 706 nM in assay [4].
Take `CC(C)n1ncc2c1-c1nc(Nc3ccc(N4CCNCC4)cn3)ncc1CC2` [Compound P-25, 1-isopropyl-N-(5-(piperazin-1-yl)pyridin-2-yl)-4,5-dihydro-1H-pyrazolo[4,3H]quinazolin-8-amine]: the 50% inhibitory concentration (IC50) is more than 10000 nM in assay [1], 9 nM in assay [2] and 31 nM in assay [4].
For the compound `Cc1nc2sc3cnc(Nc4ccc(N5CCNCC5)cn4)nc3c2n1C(C)C` [Compound P-65], the values for the IC50 in assay [2] and in assay [4] were 1070 nM and more than 3000 nM, respectively.
